pIC50: −log10 of the molar value.

Results on one compound are retold here after patent US7504425B2 (priority 2002, dated 2009).

The target in this test is Bacillus anthracis lethal factor (Bacillus anthracis, UniProt P15917). Kind of test: biochemical.
Chain of Bacillus anthracis lethal factor (P15917 34-809 limits assumed): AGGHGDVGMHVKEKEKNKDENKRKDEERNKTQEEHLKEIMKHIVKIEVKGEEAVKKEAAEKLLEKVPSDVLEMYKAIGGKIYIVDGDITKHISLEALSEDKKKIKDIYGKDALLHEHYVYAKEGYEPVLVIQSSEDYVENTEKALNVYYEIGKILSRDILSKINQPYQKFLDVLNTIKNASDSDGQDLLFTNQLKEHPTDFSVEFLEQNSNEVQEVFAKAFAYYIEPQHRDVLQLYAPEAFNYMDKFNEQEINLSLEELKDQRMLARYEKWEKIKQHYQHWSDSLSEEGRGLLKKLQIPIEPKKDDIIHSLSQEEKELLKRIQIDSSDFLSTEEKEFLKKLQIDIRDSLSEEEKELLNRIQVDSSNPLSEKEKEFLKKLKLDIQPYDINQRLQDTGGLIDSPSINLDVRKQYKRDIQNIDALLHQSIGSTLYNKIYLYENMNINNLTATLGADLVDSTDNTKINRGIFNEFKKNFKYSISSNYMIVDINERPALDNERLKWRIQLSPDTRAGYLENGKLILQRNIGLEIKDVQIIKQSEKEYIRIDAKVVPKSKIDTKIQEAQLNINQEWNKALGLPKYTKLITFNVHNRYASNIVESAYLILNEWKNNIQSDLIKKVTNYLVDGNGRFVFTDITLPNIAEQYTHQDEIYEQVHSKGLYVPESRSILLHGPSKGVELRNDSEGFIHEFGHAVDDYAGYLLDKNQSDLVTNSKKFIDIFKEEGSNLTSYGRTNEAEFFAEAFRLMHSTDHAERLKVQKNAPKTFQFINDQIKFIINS

The pIC50 is the IC50 on a negative log10 scale, so that one unit is a factor of ten. The low end stands for a large IC50, the high end for a small IC50. Consider `Cc1cc(S(=O)(=O)N[C@@H](C(=O)NO)C2CCOCC2)ccc1F`, for which the pIC50 is 7.22.
